Data on 2 substances can be found in patent US10849955B2, “Methods of treating pancreatic cancer using GPCR antagonists” (City of Hope, priority 2016, dated 2020).

Holding throughout (format): cell-based, human
One test concerns EGFR. Kind of test: EGFR phosphorylation in PANC-1 cells, Western blot kinetic study. As to conditions: 10 nM agonist(s), pEGFR over total EGFR. Here is the method: To prepare protein extracts, cells were pelleted by centrifugation and washed twice in PBS. The pellet was resuspended in lysis buffer (50 mM Tris, pH 8.0, 150 mM sodium chloride, 1% NP-40, supplemented Protease and Phosphatase Inhibitor Mini Tablets, Pierce) and incubated on a rotator for 30 min at 4° C. Subsequently, the cells were pelleted by centrifugation at 10,000 rpm for 20 min at 4° C. The protein lysate (supernatant) was used immediately or stored at −80° C. Membrane proteins were isolated using the Mem-Per Plus Membrane protein isolation kit (Thermo Scientific) per the manufacturer′ instructions. Briefly, adherent cells were scraped and centrifuged for 5 min at 300×g. The cell pellet was washed 2 times using Cell Wash solution and centrifuged for 5 min at 300×g. The cell pellet was permeabilized using Permeabilization Buffer and incubated at 4° C. for 10 mins on a rotator. […] Proteins were detected with Pierce ECL detection reagents (Pierce). […]
Cells were treated with 10 nM Dermorphin [Y(D-ALA)FGYPKC; Genscript], 10 nM (1R,1′S,3′R/1R,1′R,3′S)-L-054,264 (Tocris) individually and in combination for the indicated times. […] Blots were imaged on film and quantified using the Image Lab software (Biorad). ERK1/2 and EGFR phosphorylation at each time point was quantified and normalized by calculating the ratio of pERK1/2 over total ERK1/2 and pEGFR over total EGFR in each lane. […]
(A western blot detects proteins with antibodies after separation by electrophoresis.)

The next test concerns pERK1/2. Kind of test: pERK1/2 localization in PANC-1 cells, confocal imaging. Conditions: 3 or 30 min, 10 nM dermorphin, 10 nM L-054,264, 100 ng/ml CXCL12. As to the method: For pERK1/2 activation studies, after 24 hours, normal pancreatic and/or PANC-1 cells were treated with 1) 10 nM dermorphin; 2) 10 nM L-054,264; 3) 10 nM dermorphin plus 10 nM L-054,264; 4) 100 ng/ml CXCL12; and 5) 10 nM dermorphin plus 100 ng/ml CXCL12 for either 3 min or 30 min as indicated. PANC-1 NS, PANC-1/β arreatin2, PANC-1/SSTR2si and PANC-1/MORsi cells were treated with 10 nM dermorphin with 10 nM L-054,264 for 3 min. Following treatment, cells were washed and fixed with 4% (w/v) paraformaldehyde and 0.2% (w/v) glutaraldehyde for 30 min and inactivated with 25 mM glycine for 10 min. Cells were then washed in PBS and subsequently permeabilized on ice using 0.5% tween-20 in PBS for 20 min similarly as before (Smith et al., 2004). Cells were washed with PBS and blocked with 5% BSA in PBS for 10 min. Cells were incubated for 1 h at 37° C. with 2 μg/mL of primary antibody (anti-pERK1/2). Subsequently, cells were washed 3 times with 0.5% tween-20 in PBS for 5 min each and incubated with 2 μg/mL of Alexa Fluor 647 labeled secondary antibody in PB for 45 min. Following incubation with secondary antibody, cells were washed 3 times with 0.5% tween-20 in PBS. Cells were covered with mounting media DAPI (Vector Labs), mounted on slides, and imaged on a Zeiss LSM700 confocal microscope.

Test [1] concerns N-cadherin, MMP-9, vimentin and E-cadherin. As to the kind of experiment: EMT marker mRNA levels in PANC-1 cells, RT-PCR. Conditions: 10 nM dermorphin, 100 ng/mL CXCL12. As to the method:
RNA was isolated using the RNAeasy Plus Kit (Qiagen) according to the manufacturer's protocol. For the EMT markers assay, cells were first treated with appropriate agonists where indicated for 24 hours followed by cell lysis and RNA extraction. cDNA was synthesized from 2 μg RNA using Bioline cDNA synthesis kit according to the manufacturer's protocol. The synthesized cDNAs were used as templates for PCRs with primers as described below. RT-PCR was performed using 5×RT Mastermix (Applied Biosystems). The reactions were analyzed on the CFX96 Real time instrument (Biorad). Themocycler conditions were 95° C. for 10 min for 1 cycle, 95° C. for 15 sec and 60° C. for 1 min for 50 cycles. GAPDH was used as an internal control. For GPCR assays, COS-7 cells were used as negative and MCF-7 cells as positive controls. For EMT marker assays, fold change was calculated as a ratio of treated to untreated control.

Take (1R,1′S,3′R/1R,1′R,3′S)-L-054,264: the EGFR phosphorylation result in the test with EGFR is “induced modest EGFR phosphorylation”.

Turning to CXCL12: selective CXCR4 agonist, the pERK1/2 localization result with pERK1/2 is reported as “high levels of nuclear pERK1/2”. Besides, the “mRNA levels of 4 markers (N-cadherin, E-cadherin, MMP-9, vimentin)” value in test [1] is on record as “did not have a significant effect”.
